Values of other authors in patent publication US4775679A, “Certain heterocyclic-ethyl-2,3-dihydrobenzofurans useful as anti-inflammatory agents” (Merck & Co., Inc., priority 1987, dated 1988).

System: inflammatory responses elicited by topically applied phorbol myristate acetate (PMA) or archidonic acid (AA)

SMILES	active in this assay (topical mouse ear), previously established
C[C@@H]1C[C@H]2[C@@H]3CCC4=CC(=O)C=C[C@]4(C)[C@@]3(F)[C@@H](O)C[C@]2(C)[C@@]1(O)C(=O)CO [dexamethasone]	active
COc1ccc2c(c1)c(CC(=O)O)c(C)n2C(=O)c1ccc(Cl)cc1 [Indomethacin]	active
